Biological target: T1, Delta Opioid receptor implicated in the heterodimer with Dopamine D2 (Homo sapiens, UniProt P41143)
T1 construct: membrane-addressing signal peptide T8 (printed '18') (N); expressed in transfected cells; host or cells: HEK293T/17 cells, transient co-transfection
Format: binding
Settings: 3 nM red antagonist of the opioid receptor, D2 receptor labeled with HALO-Lumi4Tb, HEK293T cells, FIG. 10

T1 sequence (P41143 whole entry): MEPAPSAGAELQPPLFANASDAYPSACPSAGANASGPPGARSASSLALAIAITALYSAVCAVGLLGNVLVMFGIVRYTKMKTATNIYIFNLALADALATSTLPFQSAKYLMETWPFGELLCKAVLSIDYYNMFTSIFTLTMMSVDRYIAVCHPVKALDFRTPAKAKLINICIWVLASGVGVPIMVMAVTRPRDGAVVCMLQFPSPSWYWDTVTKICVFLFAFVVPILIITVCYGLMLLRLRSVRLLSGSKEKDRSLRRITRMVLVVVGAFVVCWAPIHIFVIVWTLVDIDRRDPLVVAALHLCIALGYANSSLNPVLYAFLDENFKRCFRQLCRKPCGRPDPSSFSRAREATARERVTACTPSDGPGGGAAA
T1 sequence (P14416 1-414 isoform P14416-2 partner): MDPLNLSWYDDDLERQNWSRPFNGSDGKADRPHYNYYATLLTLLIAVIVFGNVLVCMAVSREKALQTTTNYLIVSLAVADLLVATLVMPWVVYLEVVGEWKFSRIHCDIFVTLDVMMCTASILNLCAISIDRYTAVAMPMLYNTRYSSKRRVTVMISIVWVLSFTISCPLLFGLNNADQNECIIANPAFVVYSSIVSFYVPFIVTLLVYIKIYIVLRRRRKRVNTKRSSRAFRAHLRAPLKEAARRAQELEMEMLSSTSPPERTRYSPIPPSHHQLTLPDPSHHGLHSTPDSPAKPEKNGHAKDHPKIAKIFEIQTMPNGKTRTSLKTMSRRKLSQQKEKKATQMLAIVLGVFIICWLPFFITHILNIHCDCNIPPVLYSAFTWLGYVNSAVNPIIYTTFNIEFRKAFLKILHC

| SMILES | Competition with the fluorescent reference ligand and binding to the heterodimers |
| --- | --- |
| Oc1ccc2c3c1O[C@H]1c4[nH]c5ccccc5c4C[C@@]4(O)[C@@H](C2)N(CC2CC2)CC[C@]314 [Naltrindole] | compete with the fluorescent reference ligand and bind to the heterodimers |
| C=CCN1C[C@H](C)N([C@@H](c2ccccc2)c2ccc(C(=O)N(CC)CC)cc2)C[C@H]1C [SNC-162] | compete with the fluorescent reference ligand and bind to the heterodimers |
